Experimental data taken from patent US20140221490A1, “METHODS OF TREATING PAIN” (Hospira, Inc., priority 2011, published 2014).

How the values were obtained:
[1] = Study 2: pharmacokinetics of HPβCD-diclofenac and excipient HPβCD in subjects with renal or hepatic impairment and healthy subjects (crossover vs itraconazole); type: in vivo, human; conditions: for AUC(0 − t) / AUC∞ / CL / Vz / t½ / λz: mean ± SD; for Tmax: median; for maximum HPβCD plasma concentration: after administration of Dyloject
Method: Subjects with mild chronic hepatic impairment, as defined by Child-Pugh Classification A, Score of 5 to 6 and a bilirubin of ≦2.5 mg/dl, were recruited. Subjects with renal or hepatic impairment were included if they were between 18-75 years of age, and healthy subjects between 18 and 65 years of age.
Inclusion criteria for healthy subjects were similar to those for Study 1. Healthy subjects were required to have normal renal function, defined as CrCl>80 mL/min, and normal hepatic function. […]
Similar to Study 1, there were allowances for a greater breadth of co-morbid conditions in the renal and hepatic groups. […] Diabetic patients must have been on a stable therapeutic regimen for four weeks.
Exclusion criteria included pregnancy, uncontrolled or poorly controlled diabetes, use of dialysis, fluctuating or rapidly deteriorating hepatic function, hepatic or other cancers, organ transplantation or immunosuppression, acute infections, or asthma. Subjects were excluded for any serious cardiovascular events, such as myocardial infarction, coronary artery bypass surgery or percutaneous coronary intervention, unstable angina, stroke or congestive heart failure. Restrictions were also placed on certain disease states, such as current intestinal disorders or infections, peptic ulcers, GI bleeding or cerebral hemorrhage. Subjects who were positive for hepatitis B or hepatitis C were excluded from the healthy and renal groups, but were included in the subjects with mild chronic hepatic impairment. […] Hypersensitivity to NSAIDs or diclofenac also prompted exclusion.
Subjects with renal or hepatic impairment reported to the study site on study day 0 and remained at the site for two nights and two days. […] Subjects were discharged on study day 2 after being assessed by the investigator, and returned 7±3 days after dosing for final safety assessments. If there were no abnormal findings at discharge, the follow-up visit was completed via telephone.
Healthy subjects reported to the study site on study day 0 and remained at the site for three nights and three days. […] Blood samples were obtained as described above for renal and hepatic subjects. […] For itraconazole, one blood sample was to be drawn at each time point to assay for HPβCD concentrations. Subjects were discharged on study day 3 after being assessed by the investigator, and returned 7±3 days after receiving the last dose of study drug for safety assessments.
The LOQ for the HPβCD assay was 100 ng/ml.
Pharmacokinetic parameters were calculated using non-compartmental analysis. Only those plasma concentrations equal to or greater than the lower limit of quantitation were used in the analysis. Actual sampling times were used in all pharmacokinetic analyses.
The maximum serum concentration (Cmax) and time to Cmax (Tmax) were taken directly from the data. The elimination rate constant, λz, was calculated as the negative of the slope of the terminal log-linear segment of the serum concentration-time curve. The range of data used for each subject and treatment was determined by visual inspection of a semi-logarithmic plot of concentration vs. time. Elimination half-life (t½) was calculated according to the following equation;
where Ctf is the final concentration≧: LOQ. Total plasma clearance (CL) was calculated as Dose/AUC, and volume of distribution (Vz) was calculated as Dose/λz AUC.
Comparisons among the three subject types were done using […]. The same model was used to test for the effect of hepatic impairment on the pharmacokinetics of diclofenac and HPβCD but without additional comparisons, as there were only two groups.

[2] = plasma; cited from earlier work
[3] = Study 2, Healthy matches (to hepatic group), 37.5 mg HPβCD-diclofenac IV, plasma HPβCD
[4] = Study 2, Healthy matches (to renal groups), 37.5 mg HPβCD-diclofenac IV, plasma HPβCD
[5] = Study 2, Healthy, plasma HPβCD after 37.5 mg HPβCD-diclofenac IV
[6] = Study 2, Healthy, plasma HPβCD after 200 mg itraconazole IV
[7] = Study 2, Mild Hepatic, 37.5 mg HPβCD-diclofenac IV, plasma HPβCD
[8] = Study 2, Mild Renal, 37.5 mg HPβCD-diclofenac IV, plasma HPβCD
[9] = Study 2, Moderate renal, 37.5 mg HPβCD-diclofenac IV, plasma HPβCD
[10] = moderate renal insufficiency compared to healthy subjects
[11] = subjects with moderate renal insufficiency, 37.5 mg dose of HPβCD-diclofenac

**Q.** What does the source list for CC(O)COC[C@H]1O[C@@H]2O[C@H]3[C@H](O)[C@@H](O)[C@@H](O[C@H]4[C@H](O)[C@@H](O)[C@@H](O[C@H]5[C@H](O)[C@@H](O)[C@@H](O[C@H]6[C@H](O)[C@@H](O)[C@@H](O[C@H]7[C@H](O)[C@@H](O)[C@@H](O[C@H]8[C@H](O)[C@@H](O)[C@@H](O[C@H]1[C@H](O)[C@H]2O)O[C@@H]8COCC(C)O)O[C@@H]7COCC(C)O)O[C@@H]6COCC(C)O)O[C@@H]5COCC(C)O)O[C@@H]4COCC(C)O)O[C@@H]3COCC(C)O (stereo partly drawn) [HPβCD, hydroxypropyl-beta-cyclodextrin]?
**A.** PK in subjects with mild hepatic impairment versus matched healthy controls ([1]; 37.5 mg IV): no differences; exposure to HPβCD, geometric least squares mean ratio of AUC∞, relative to 8000 mg as Sporanox ([1]; 333.3 mg HPβCD as HPβCD-diclofenac, healthy subjects): 4.58%; AUC(0 − t) [1, 3]: 52,982 ± 11,267 h × ng/mL; AUC∞ [1, 3]: 53,651 ± 11,321 h × ng/mL; CL [1, 3]: 107 ± 21.2 mL/min; Vz [1, 3]: 20.6 ± 2.45 L; t½ [1, 3]: 2.28 ± 0.42 h; λz [1, 3]: 0.3127 ± 0.052 h⁻¹; Tmax [1, 3]: 0.083 h; AUC(0 − t) [1, 4]: 66,449 ± 12,642 h × ng/mL; AUC∞ [1, 4]: 67,316 ± 12,615 h × ng/mL; CL [1, 4]: 85.2 ± 16.5 mL/min; Vz [1, 4]: 23.3 ± 9.84 L; t½ [1, 4]: 3.29 ± 1.66 h; λz [1, 4]: 0.2510 ± 0.095 h⁻¹; Tmax [1, 4]: 0.083 h; AUC(0 − t) [1, 5]: 58,994 ± 14,123 h × ng/mL; AUC∞ [1, 5]: 59,709 ± 14,217 h × ng/mL; CL [1, 5]: 98.0 ± 22.7 mL/min; Vz [1, 5]: 21.8 ± 7.36 L; t½ [1, 5]: 2.74 ± 1.35 h; λz [1, 5]: 0.2909 ± 0.0860 h⁻¹; Tmax [1, 5]: 0.083 h; CL [1, 6]: 106 ± 19.0 mL/min; Vz [1, 6]: 23.5 ± 5.65 L; t½ [1, 6]: 2.54 ± 0.25 h; λz [1, 6]: 0.2752 ± 0.0244 h⁻¹; Tmax [1, 6]: 1.083 h; AUC(0 − t) [1, 7]: 55,946 ± 17,233 h × ng/mL; AUC∞ [1, 7]: 56,802 ± 17,412 h × ng/mL; CL [1, 7]: 107 ± 33.8 mL/min; Vz [1, 7]: 20.0 ± 4.19 L; t½ [1, 7]: 2.28 ± 0.60 h; λz [1, 7]: 0.3226 ± 0.084 h⁻¹; Tmax [1, 7]: 0.083 h; AUC(0 − t) [1, 8]: 127,141 ± 90,489 h × ng/mL; AUC∞ [1, 8]: 128,349 ± 91,132 h × ng/mL; CL [1, 8]: 59.0 ± 31.3 mL/min; Vz [1, 8]: 13.6 ± 5.38 L; t½ [1, 8]: 2.87 ± 0.69 h; λz [1, 8]: 0.2549 ± 0.068 h⁻¹; Tmax [1, 8]: 0.083 h; AUC(0 − t) [1, 9]: 169,042 ± 52,722 h × ng/mL; AUC∞ [1, 9]: 165,728 ± 60,386 h × ng/mL; CL [1, 9]: 36.2 ± 10.0 mL/min; Vz [1, 9]: 17.7 ± 1.88 L; t½ [1, 9]: 6.04 ± 1.94 h; λz [1, 9]: 0.1226 ± 0.033 h⁻¹; Tmax [1, 9]: 0.083 h; exposure to HPβCD relative to that of itraconazole ([1]; after a single dose): 1/20; maximum HPβCD plasma concentration ([1]; normal healthy subjects): 70 µg/mL; maximum HPβCD plasma concentration ([1]; subjects with moderate renal impairment): 106 µg/mL; exposure to HPβCD relative to that of itraconazole ([1]; after steady state): ⅛; decrease in CL of HPβCD [1, 10]: 2.4 fold; increase in t½ of HPβCD [1, 10]: 1.8 fold; exposure to HPβCD lower than in healthy subjects administered itraconazole, based on AUC(0-T) [1, 11]: 7.9 fold; exposure to HPβCD lower than in healthy subjects administered itraconazole, based on average concentration at steady state (Cav) [1, 11]: 3.9 fold

**Q.** For C[C@]12CC[C@H]3[C@@H](CCC4=CC(=O)CC[C@@]43C)[C@@H]1CC[C@@H]2O [Testosterone], which “Prot. bind., drug fraction bound to protein (fP)” value [2] is on record?
**A.** Its value is 98%.
